Laboratory results: ChEMBL document CHEMBL1201862, “PubChem BioAssay data set” (2004)
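48-hour exposure; five concentrations; linearly interpolated endpoints. GI50 marks 50% less growth.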 Activity calls are given as the source filed them. Rule as the data show it: active = GI50 up to about 1.1 µM and inactive = higher.

Assays:
Test in all cases: NCI anticancer screen, dose series, 48 h
A549 = system: A549
ACHN = system: ACHN
BT-549 = system: BT-549
EKVX = system: EKVX
HCT-116 = system: HCT-116
HCT-15 = system: HCT-15
HT-29 = system: HT-29
M14 = system: M14
MDA-MB-231 = system: MDA-MB-231
MDA-MB-435 = system: MDA-MB-435
NCI-H522 = system: NCI-H522
OVCAR-3 = system: OVCAR-3
OVCAR-8 = system: OVCAR-8
RPMI-8226 = system: RPMI-8226
SK-MEL-2 = system: SK-MEL-2
SK-MEL-5 = system: SK-MEL-5
SN12C = system: SN12C
SW-620 = system: SW-620
UO-31 = system: UO-31
Hs-578T = system: Hs-578T

Compound | GI50 (A549) | GI50 (ACHN) | GI50 (BT-549) | GI50 (EKVX) | GI50 (HCT-116) | GI50 (HCT-15) [µM] | GI50 (HT-29) | GI50 (M14) | GI50 (MDA-MB-231) | GI50 (MDA-MB-435) | GI50 (NCI-H522) | GI50 (OVCAR-3) | GI50 (OVCAR-8) | GI50 (RPMI-8226) | GI50 (SK-MEL-2) | GI50 (SK-MEL-5) | GI50 (SN12C) | GI50 (SW-620) | GI50 (UO-31) | GI50 (Hs-578T)
COc1ccc2c(c1)CC[C@@H]1[C@@H]2CC[C@]2(C)C(=O)/C(=C/c3ccncc3)C[C@@H]12 | 30.8 µM (inactive) | 42.5 µM (inactive) | 67.5 µM (inactive) | 53.6 µM (inactive) | 28.2 µM (inactive) | 41.4 | 33.1 µM (inactive) | 31.7 µM (inactive) | 64.7 µM (inactive) | 30.4 µM (inactive) | 30.4 µM (inactive) | 17.8 µM (inactive) | 51.6 µM (inactive) | 93.8 µM (inactive) | 22.5 µM (inactive) | 20.2 µM (inactive) | 55.6 µM (inactive) | 31.2 µM (inactive) | 37.2 µM (inactive) | 
CC(=O)C1C(=O)C(=O)N(c2ccc(Br)cc2)C1=O (centres undefined) | > 100 µM (inactive) | > 100 µM (inactive) | > 100 µM (inactive) | > 100 µM (inactive) | > 100 µM (inactive) | > 100 | > 100 µM (inactive) | > 100 µM (inactive) | > 100 µM (inactive) | > 100 µM (inactive) | > 100 µM (inactive) | > 100 µM (inactive) | > 100 µM (inactive) |  | > 100 µM (inactive) | > 100 µM (inactive) | > 100 µM (inactive) | > 100 µM (inactive) | > 100 µM (inactive) | > 100 µM (inactive)
COc1cc(Nc2nnc3n2S(=O)(=O)c2cc(C)c(Cl)cc2S3)cc(OC)c1 | 6.62 µM (inactive) | 5.21 µM (inactive) | 5.77 µM (inactive) | 15.4 µM (inactive) | 14 µM (inactive) | 17.7 | 12.4 µM (inactive) | 59.3 µM (inactive) | 19.9 µM (inactive) | 4.28 µM (inactive) | 2.61 µM (inactive) | 5.19 µM (inactive) | 17.5 µM (inactive) | 2.87 µM (inactive) |  | 9.29 µM (inactive) | 24.8 µM (inactive) |  | 11.6 µM (inactive) | 14.2 µM (inactive)
O=c1[nH]c(=O)c2ncn(-c3ccc([N+](=O)[O-])cn3)c2[nH]1 | > 100 µM (inactive) | > 100 µM (inactive) | > 100 µM (inactive) | > 100 µM (inactive) | > 100 µM (inactive) | > 100 | > 100 µM (inactive) | > 100 µM (inactive) | > 100 µM (inactive) | > 100 µM (inactive) |  | > 100 µM (inactive) | > 100 µM (inactive) | > 100 µM (inactive) | > 100 µM (inactive) | > 100 µM (inactive) | > 100 µM (inactive) | > 100 µM (inactive) | > 100 µM (inactive) | 
O=C(O)c1ccccc1/C=C1/Cc2ccc3c(c2C1=O)CCC3 | 44.7 µM (inactive) | 37.7 µM (inactive) | 22.9 µM (inactive) | 48.1 µM (inactive) | 30.7 µM (inactive) | 33.6 | 44.7 µM (inactive) | 35.5 µM (inactive) |  | 26.3 µM (inactive) | 42.4 µM (inactive) | 31.8 µM (inactive) | 48.1 µM (inactive) | 22.4 µM (inactive) | 12.7 µM (inactive) | 18.2 µM (inactive) | 51.8 µM (inactive) | 58.9 µM (inactive) | 39.7 µM (inactive) | 32.2 µM (inactive)
O=C1CC(CC(O)C(O)C(O)CO)CC(=O)N1 (centres undefined) | > 100 µM (inactive) | > 100 µM (inactive) | > 100 µM (inactive) | > 100 µM (inactive) | > 100 µM (inactive) | > 100 | > 100 µM (inactive) | > 100 µM (inactive) | > 100 µM (inactive) | > 100 µM (inactive) | > 100 µM (inactive) | > 100 µM (inactive) | > 100 µM (inactive) | > 100 µM (inactive) |  | > 100 µM (inactive) | > 100 µM (inactive) | > 100 µM (inactive) | > 100 µM (inactive) | > 100 µM (inactive)
CC1=NN(c2nc(N)nc(-c3sccc3N)n2)C(C)(C)C1 | 35.8 µM (inactive) | > 100 µM (inactive) | 56.1 µM (inactive) | 82.6 µM (inactive) | 96.4 µM (inactive) | 59.4 | > 100 µM (inactive) | 23.9 µM (inactive) | 73.1 µM (inactive) | 45 µM (inactive) | 32.7 µM (inactive) | > 100 µM (inactive) | 62.5 µM (inactive) | 31.8 µM (inactive) |  | 41.1 µM (inactive) | > 100 µM (inactive) | > 100 µM (inactive) | > 100 µM (inactive) | 89.3 µM (inactive)
CC(C)CC(NC(=O)C(CI)Cc1ccccc1)C(=O)Nc1ccccc1 (centres undefined) | > 100 µM (inactive) | > 100 µM (inactive) | 7.76 µM (inactive) | > 100 µM (inactive) | > 100 µM (inactive) | > 100 |  | > 100 µM (inactive) | > 100 µM (inactive) | > 100 µM (inactive) | > 100 µM (inactive) | > 100 µM (inactive) | > 100 µM (inactive) | > 100 µM (inactive) | > 100 µM (inactive) | > 100 µM (inactive) | > 100 µM (inactive) | > 100 µM (inactive) | > 100 µM (inactive) | 
COc1cc(C2SCCCCCCCCCCSC(c3ccc(O)c(OC)c3)SCCCCCCCCCCS2)ccc1O (centres undefined) | > 100 µM (inactive) | > 100 µM (inactive) | > 100 µM (inactive) | > 100 µM (inactive) | > 100 µM (inactive) | > 100 | > 100 µM (inactive) | > 100 µM (inactive) | > 100 µM (inactive) | > 100 µM (inactive) | > 100 µM (inactive) |  | > 100 µM (inactive) | > 100 µM (inactive) | > 100 µM (inactive) | > 100 µM (inactive) | > 100 µM (inactive) | > 100 µM (inactive) | > 100 µM (inactive) | 
Cc1ccc(S(=O)(=O)Oc2cc(N)c3c(n2)CCC3)cc1 | > 100 µM (inactive) | > 100 µM (inactive) | > 100 µM (inactive) | 42.3 µM (inactive) | > 100 µM (inactive) | > 100 | 48.3 µM (inactive) | > 100 µM (inactive) | > 100 µM (inactive) | > 100 µM (inactive) |  | 37.9 µM (inactive) | > 100 µM (inactive) | 24.3 µM (inactive) | > 100 µM (inactive) | 39 µM (inactive) | > 100 µM (inactive) | > 100 µM (inactive) | 69.3 µM (inactive) | > 100 µM (inactive)
O=C1CSC(c2c[nH]c3ccccc23)N1c1cccc(Cl)c1 (centres undefined) | 56.1 µM (inactive) | 24.2 µM (inactive) | 43.9 µM (inactive) | > 100 µM (inactive) | 29.5 µM (inactive) | 40.4 | 37.8 µM (inactive) | 49.1 µM (inactive) | 24 µM (inactive) | 33.6 µM (inactive) |  | 27.9 µM (inactive) | > 100 µM (inactive) | 25.7 µM (inactive) | 30.1 µM (inactive) | 40 µM (inactive) | 52.2 µM (inactive) | 50.7 µM (inactive) | 84.5 µM (inactive) | 38.4 µM (inactive)
CC(C(=O)N1C(=O)N(C(=O)[C@H](C)C(O)c2ccccc2)[C@H](c2ccccc2)[C@H]1c1ccccc1)[C@@H](O)c1ccccc1 (some centres undefined) | 33 µM (inactive) | 30.5 µM (inactive) | 6.04 µM (inactive) | 21.1 µM (inactive) | 34.2 µM (inactive) | 45.7 | 36.6 µM (inactive) | 28.5 µM (inactive) | 19.5 µM (inactive) | 26.2 µM (inactive) | 30.3 µM (inactive) |  | 25.1 µM (inactive) |  | 16.9 µM (inactive) | 14.9 µM (inactive) | 38.8 µM (inactive) | 45.2 µM (inactive) | 31.5 µM (inactive) | 
C=CC(C)(C)c1cc([C@@H]2COc3cc(O)ccc3C2=O)c(O)c(OC)c1OC | 15.8 µM (inactive) | 16.2 µM (inactive) | 10.2 µM (inactive) | 12.1 µM (inactive) | 11.8 µM (inactive) | 14 | 20.5 µM (inactive) | 15.5 µM (inactive) | 13.5 µM (inactive) | 6.44 µM (inactive) | 4.25 µM (inactive) | 10.5 µM (inactive) | 17.3 µM (inactive) |  | 15.9 µM (inactive) | 10.4 µM (inactive) | 16.3 µM (inactive) | 31.6 µM (inactive) | 10.9 µM (inactive) | 16.4 µM (inactive)
CCOC(=O)c1cn2c(n1)sc1cccc(C)c12 | > 100 µM (inactive) | > 100 µM (inactive) | > 100 µM (inactive) | 52.6 µM (inactive) | > 100 µM (inactive) | > 100 |  | > 100 µM (inactive) | > 100 µM (inactive) |  | > 100 µM (inactive) | > 100 µM (inactive) | > 100 µM (inactive) |  |  | 63.4 µM (inactive) |  |  | 72.8 µM (inactive) | 21.7 µM (inactive)
N#CC1=C(N)Nc2nc3ccccc3n2C1c1ccccc1 (centres undefined) | 42 µM (inactive) | 23.3 µM (inactive) | 23.8 µM (inactive) | 9.2 µM (inactive) | 29.8 µM (inactive) | 44.7 | 33.7 µM (inactive) | > 100 µM (inactive) | 45.9 µM (inactive) | 45.6 µM (inactive) |  | 30.5 µM (inactive) | 55.1 µM (inactive) | 6.41 µM (inactive) | 77.8 µM (inactive) | 37.6 µM (inactive) | > 100 µM (inactive) | 55.6 µM (inactive) | 64.3 µM (inactive) | 24.7 µM (inactive)
